Calls of active or inactive are those of the source. How the calls were made is not given here.
Test system: rodent carcinogenicity bioassays, tumor incidence
Experiment: CCRIS carcinogenicity studies
Conditions: Species: MOUSE, Route: INTRAPERITONEAL, Dose: 0, 14 UG TOTAL DOSE (2 UG/5 µL, 4 UG/10 µL, 8 UG/20 µL DMSO ON DAYS 1,8 AND 15), 70 UG TOTAL DOSE (10 UG/5 µL, 20 UG/10, Dose: 0, 14 UG TOTAL DOSE (2 UG/5 µL, 4 UG/10 µL, 8 UG/20 µL DMSO ON DAYS 1,8 AND 15), 70 UG TOTAL DOSE (10 UG/5 µL, 20 UG/10
Method in brief: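 NCI-built, expert-reviewed records of carcinogenicity and related test outcomes (mutagenicity, tumor promotion/inhibition) compiled from published and report sources, historical span 1985-2011, not updated.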

With O=[N+]([O-])c1c2ccccc2c2ccc3cccc4ccc1c2c43 the carcinogen call (Strain/Sex: ICR/FEMALE) was “inactive; negative” and the carcinogen call (Strain/Sex: ICR/MALE) was “inactive; negative”.
